Test systems include SNB-75 CNS; NCI-H522 lung; SW-620 colon; MOLT-4 leukemia; HT29 colon; OVCAR-3 ovarian; UO-31 renal; 786-0 renal; SNB-19 CNS; MDA-N; UACC-62 melanoma; SK-MEL-5 melanoma; NCI-H460 lung; SF-268 CNS; NCI/ADR-RES ovarian; BT-549 breast; SK-MEL-2 melanoma; A498 renal; A549 NSCLC; MCF7 breast.
What all share (assay): NCI tumour cell line growth inhibition, 48 h

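Interpolation was linear, between the two tested concentrations surrounding the appropriate level; five concentrations were tested over 48 hours in 96-well plates. TGI denotes the concentration required for complete inhibition of growth.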 *1 amine or outer side, *2 acyl side, *3 side chain or, on linkers, in order; H or OH if unused. Where a SMILES comes first, the peptide text is derived from it. [ ]: non-standard residue; d: D form. The star is where a group is joined. ξ: configuration not given here. X27 = O=C([C@H]1CCC[C@H]1N[*:1])[*:2]; ξW = NC(Cc1c[nH]c2ccccc12)C(=O)O; ξF = NC(Cc1ccccc1)C(=O)O; Boc = CC(C)(C)OC(=O)*; ξK = NCCCCC(N)C(=O)O; ξT = CC(O)C(N)C(=O)O; tBu = CC(C)(C)*

With `CCCC(=O)Nc1cc(/C=C/C(=O)N2CC(CCl)c3c2cc(OCc2ccccc2)c2[nH]cc(C)c32)n(C)c1` (stereo unspecified), the TGI in the experiment on SNB-75 CNS was 0.381 µM; in the experiment with NCI-H522 lung, 0.0267 µM; with SW-620 colon it was greater than 25 µM; in the experiment on MOLT-4 leukemia, 0.61 µM; in the experiment with HT29 colon it was 0.488 µM; in the experiment with OVCAR-3 ovarian, 0.512 µM. Besides, the TGI was found to be 0.215 µM in the experiment with UO-31 renal; 2.89 µM with 786-0 renal; 24.6 µM with SNB-19 CNS; 1.67 µM in the experiment with MDA-N; 0.0934 µM in the experiment with UACC-62 melanoma; 0.131 µM with SK-MEL-5 melanoma. The TGI with NCI-H460 lung was found to be 0.0588 µM; in the experiment with SF-268 CNS, 0.907 µM; with NCI/ADR-RES ovarian, 0.182 µM; in the experiment on BT-549 breast, 3.14 µM; in the experiment on SK-MEL-2 melanoma, 0.218 µM; in the experiment with A498 renal, 1.14 µM.

For `NC(=O)C(=O)c1ncn(Cc2ccccc2)c1N`, the TGI in the experiment on SNB-75 CNS, in the experiment on NCI-H522 lung, with SW-620 colon, with HT29 colon, in the experiment with OVCAR-3 ovarian and in the experiment with 786-0 renal was greater than 100 µM throughout. For the same compound, the TGI in the experiment on SNB-19 CNS, in the experiment on MDA-N, in the experiment with UACC-62 melanoma, with A549 NSCLC, in the experiment with SK-MEL-5 melanoma and in the experiment on NCI-H460 lung was greater than 100 µM each time. The TGI with MCF7 breast, with SF-268 CNS, with NCI/ADR-RES ovarian, in the experiment with SK-MEL-2 melanoma and with A498 renal was greater than 100 µM in each case.

For `Clc1c(Cl)c(Cl)c2c(nnn2C2CCCO2)c1Cl` (stereo unspecified), the TGI was 40.3 µM in the experiment with SNB-75 CNS; 66.6 µM in the experiment with NCI-H522 lung; 46.3 µM in the experiment on MOLT-4 leukemia; greater than 100 µM in the experiment on HT29 colon; greater than 100 µM with OVCAR-3 ovarian; greater than 100 µM in the experiment on 786-0 renal. Moreover, the TGI is 74.3 µM in the experiment on MDA-N; greater than 100 µM in the experiment with UACC-62 melanoma; 65.1 µM in the experiment with A549 NSCLC; greater than 100 µM in the experiment with SK-MEL-5 melanoma; 41.8 µM in the experiment on NCI-H460 lung; greater than 100 µM with MCF7 breast. Moreover, the TGI with SF-268 CNS is greater than 100 µM; in the experiment on NCI/ADR-RES ovarian, greater than 100 µM; with SK-MEL-2 melanoma, 73.3 µM; with A498 renal, 88.7 µM.

`c1ccc2c(c1)NCCC(=NC1CCCCC1)N2`: the TGI in the experiment on SNB-75 CNS, in the experiment on NCI-H522 lung, in the experiment with SW-620 colon, in the experiment with MOLT-4 leukemia, with HT29 colon and in the experiment with OVCAR-3 ovarian was greater than 100 µM each time. Also, the TGI with UO-31 renal, with 786-0 renal, with SNB-19 CNS, in the experiment with MDA-N, in the experiment on UACC-62 melanoma and in the experiment on A549 NSCLC was greater than 100 µM each time. In addition, the TGI with SK-MEL-5 melanoma, in the experiment on NCI-H460 lung, in the experiment on SF-268 CNS, in the experiment on NCI/ADR-RES ovarian, in the experiment on BT-549 breast and with SK-MEL-2 melanoma was greater than 100 µM throughout. The TGI in the experiment on A498 renal is greater than 100 µM.

In the case of `CCOP(=O)(C=C=C1CCC2[C@@H]3CCc4cc(OC)ccc4C3CC[C@]12C)OCC` (stereo partly specified), the TGI with SNB-75 CNS was determined as 25.5 µM; in the experiment on NCI-H522 lung it was 18.9 µM; in the experiment on SW-620 colon it was 29.2 µM; in the experiment on HT29 colon, 17.7 µM; in the experiment with OVCAR-3 ovarian, 24.2 µM; with 786-0 renal it was 25.3 µM. Besides, the TGI in the experiment on SNB-19 CNS stood at 28.3 µM; in the experiment with MDA-N, 26 µM; with UACC-62 melanoma it was 18.2 µM; in the experiment on A549 NSCLC, 18.4 µM; in the experiment on SK-MEL-5 melanoma, 14.2 µM; in the experiment on NCI-H460 lung, 27.6 µM. Moreover, the TGI in the experiment with MCF7 breast was 20.7 µM; with SF-268 CNS, 28 µM; in the experiment on NCI/ADR-RES ovarian, 24.2 µM; in the experiment with SK-MEL-2 melanoma, 26.5 µM; with A498 renal, 25.9 µM.

In the case of `N#C[C@H](C(=O)c1ccccc1F)c1nc2ccccc2s1`, the TGI with SNB-75 CNS is greater than 100 µM; in the experiment on NCI-H522 lung, 69.3 µM; in the experiment on SW-620 colon it was greater than 100 µM; in the experiment on MOLT-4 leukemia it was 96.1 µM; in the experiment on HT29 colon, greater than 100 µM; in the experiment with OVCAR-3 ovarian, 63.7 µM. Moreover, the TGI in the experiment on UO-31 renal, in the experiment with 786-0 renal, in the experiment with SNB-19 CNS, with MDA-N, with UACC-62 melanoma and in the experiment on A549 NSCLC was greater than 100 µM throughout. Moreover, the TGI was greater than 100 µM with SK-MEL-5 melanoma; 94.2 µM in the experiment on NCI-H460 lung; greater than 100 µM in the experiment with SF-268 CNS; greater than 100 µM in the experiment with NCI/ADR-RES ovarian; greater than 100 µM in the experiment on BT-549 breast; 51.1 µM in the experiment on SK-MEL-2 melanoma. Further, the TGI in the experiment with A498 renal is greater than 100 µM.

Take `COc1ccc(N=C2S/C(=N\C(=Nc3ccccc3)SCc3ccccc3)N(c3ccccc3)C2=Nc2ccc(OC)cc2)cc1`: the TGI in the experiment on SNB-75 CNS, in the experiment on SW-620 colon, in the experiment on MOLT-4 leukemia, with HT29 colon, with UO-31 renal and in the experiment with 786-0 renal was greater than 100 µM throughout. The TGI in the experiment on SNB-19 CNS, in the experiment with MDA-N, with UACC-62 melanoma, with A549 NSCLC, with SK-MEL-5 melanoma and in the experiment with MCF7 breast was greater than 100 µM each time. Also, the TGI in the experiment with BT-549 breast and in the experiment with SK-MEL-2 melanoma was greater than 100 µM in each case.

For the compound `CC(OC(C)(C)C)C1NC(=O)C(CCCCNC(=O)OC(C)(C)C)NC(=O)C(Cc2c[nH]c3ccccc23)NC(=O)C(Cc2ccccc2)NC(=O)[C@H]2CCC[C@H]2NC(=O)C(Cc2ccccc2)NC1=O` (stereo partly specified) (cyclo([X27][ξF][ξW][ξK](Boc)[ξT](tBu)[ξF])), the TGI with SNB-75 CNS, in the experiment with NCI-H522 lung, with SW-620 colon, in the experiment with MOLT-4 leukemia, in the experiment with HT29 colon and in the experiment on OVCAR-3 ovarian was greater than 100 µM each time. Further, the TGI was greater than 100 µM in the experiment with UO-31 renal; greater than 100 µM in the experiment with 786-0 renal; 69.6 µM in the experiment with SNB-19 CNS; greater than 100 µM in the experiment with MDA-N; greater than 100 µM in the experiment on UACC-62 melanoma; greater than 100 µM in the experiment with A549 NSCLC. In addition, the TGI in the experiment with SK-MEL-5 melanoma is 16.1 µM; in the experiment on NCI-H460 lung, greater than 100 µM; in the experiment on MCF7 breast, greater than 100 µM; in the experiment on SF-268 CNS it was greater than 100 µM; in the experiment on NCI/ADR-RES ovarian, greater than 100 µM; with SK-MEL-2 melanoma it was 62.8 µM.

As to `CC(C)C1OC(N)=C(C#N)C1(C#N)C#N` (stereo unspecified), the TGI in the experiment with SNB-75 CNS, in the experiment on NCI-H522 lung, in the experiment with SW-620 colon, with HT29 colon, in the experiment with UO-31 renal and in the experiment with 786-0 renal was greater than 100 µM throughout. Further, the TGI in the experiment on SNB-19 CNS, in the experiment on MDA-N, in the experiment with UACC-62 melanoma, in the experiment with A549 NSCLC, in the experiment on SK-MEL-5 melanoma and in the experiment on MCF7 breast was greater than 100 µM in each case. Besides, the TGI with SF-268 CNS, in the experiment with NCI/ADR-RES ovarian, in the experiment with SK-MEL-2 melanoma and in the experiment on A498 renal was greater than 100 µM throughout.

For `Cc1ccc(/C=N/n2c(Cc3ccccc3)n[nH]c2=O)cc1`, the TGI with SNB-75 CNS, in the experiment with NCI-H522 lung, with SW-620 colon, in the experiment with MOLT-4 leukemia, with HT29 colon and in the experiment with OVCAR-3 ovarian was greater than 100 µM each time. Further, the TGI with UO-31 renal, in the experiment on 786-0 renal, in the experiment with SNB-19 CNS, in the experiment on MDA-N, in the experiment on A549 NSCLC and in the experiment on SK-MEL-5 melanoma was greater than 100 µM each time. In addition, the TGI in the experiment on NCI-H460 lung, with SF-268 CNS, in the experiment on NCI/ADR-RES ovarian, in the experiment on BT-549 breast and in the experiment on A498 renal was greater than 100 µM throughout.

In the case of `COc1ccc(CC2C3=C(CCN2C(=O)C2CCC2)CC2(CC3)OCCO2)cc1O` (stereo unspecified), the TGI is 52.4 µM in the experiment with SNB-75 CNS; 38.3 µM in the experiment on NCI-H522 lung; greater than 100 µM in the experiment on SW-620 colon; greater than 100 µM with MOLT-4 leukemia; greater than 100 µM with HT29 colon; 35.4 µM in the experiment with OVCAR-3 ovarian. The TGI is 1.49 µM in the experiment on UO-31 renal; greater than 100 µM with 786-0 renal; greater than 100 µM with SNB-19 CNS; 31.6 µM with MDA-N; greater than 100 µM with UACC-62 melanoma; greater than 100 µM in the experiment with A549 NSCLC. For the same compound, the TGI in the experiment on SK-MEL-5 melanoma is greater than 100 µM; in the experiment with NCI-H460 lung, greater than 100 µM; in the experiment with MCF7 breast it was greater than 100 µM; in the experiment with SF-268 CNS, greater than 100 µM; in the experiment with NCI/ADR-RES ovarian it was 42.2 µM; with SK-MEL-2 melanoma it was greater than 100 µM. The same compound registered a TGI in the experiment with A498 renal greater than 100 µM.

As for `COc1ccc(NC(=S)N/N=C\c2ccc(NC(C)=O)cc2)cc1`, the TGI in the experiment on SNB-75 CNS, with NCI-H522 lung, with SW-620 colon, with MOLT-4 leukemia, in the experiment with HT29 colon and in the experiment with OVCAR-3 ovarian was greater than 100 µM throughout. Besides, the TGI in the experiment with UO-31 renal, with 786-0 renal, in the experiment with SNB-19 CNS, in the experiment on MDA-N, in the experiment with UACC-62 melanoma and in the experiment on A549 NSCLC was greater than 100 µM throughout. Further, the TGI in the experiment on SK-MEL-5 melanoma, with NCI-H460 lung, in the experiment on BT-549 breast and with SK-MEL-2 melanoma was greater than 100 µM in each case.

The values above are taken from PubChem BioAssay (NCI).
